# Experimental data reported in patent US8124051B2, “Complex drug delivery composition and method for treating cancer” (priority 2003, dated 2012).
# Where no end group is shown, it is not given here. [ ]: non-standard residue; d: D form.
# B1: LHRH-Lys^6-des-Gly^10-Pro^9-ethylamide (active analog of the LHRH peptide) (peptide)
# peptide: QHWSY[dK]LRP-NHEt
# modifications: ends and bridges not checked
# B2: LHRH-BH3 peptide (peptide)
# peptide 1: QHWSY[dK]LRP-NHEt
# peptide 2: MGQVGRQLAIIGDDINRRY
# modifications: ends and bridges not checked; also: LHRH analog and BH3 peptide are joined, the linkage is not given here
# Experiments:
# [1] = test system: LHRHR-positive A2780 human ovarian carcinoma cells; assay: Cytotoxicity, modified MTT assay; type: cell-based; settings: for toxicity: LHRHR-positive cancer cells, up to the highest possible concentration
# Experimental: (§1) In contrast, LHRH-BH3 peptide was not toxic in cancer cells not expressing LHRHR. Further, non-targeted Ant-BH3 peptide was toxic in both LHRHR-positive and negative cancer cells. […] Thus, the LHRH peptide specifically targets cancer cells expressing the LHRHR and facilitates the uptake of LHRH-conjugates.
# Cytotoxicity of CPT, CPT-PEG, CPT-PEG-BH3, and CPT-PEG-LHRH conjugates and the combination of CPT-PEG-BH3 with CPT-PEG-LHRH conjugates was analyzed using a modified MTT assay (Minko, et al. (1998) supra) in sensitive A2780 and multidrug resistant A2780/AD human ovarian carcinoma cells.
# (§2) Cytotoxicity. The cytotoxicity of drugs were assessed using a modified MTT (3-(4,5-dimethylthiazol-2-yl)-2,5-diphenyltetrazolium bromide) assay (Kunath, et al. (2000) Eur. J. Pharm. Biopharm 49:11-15; Minko, et al. (1998) J. Controlled Rel. 54:223-233; Minko, et al. (1999) J. Controlled Rel. 59:133-148; Minko, et al. (2002) Cancer Chemother. Pharmacol. 50:143-150). To measure cytotoxicity, cells were incubated in a 96-well microtiter plate with 45 different equivalent concentrations of CPT ranging from […] in a complex conjugate. Six wells were used for control cells. The duration of incubation was varied from 3 to 72 hours to find an optimal range of incubation time for each complex conjugate.
# [2] = test system: genes encoding antiapoptotic members of the BCL-2 protein family; assay: RT-PCR expression of genes encoding antiapoptotic members of the BCL-2 protein family; type: cell-based, human; settings: 48 hours, IC50 dose of Ant-BH3 peptide; β2-m internal standard
# Experimental: (§3) The influence of BH3 peptide, delivered by an Ant-BH3 fusion peptide, on the expression of proteins and genes encoding proapoptotic and antiapoptotic members of the BCL-2 protein family was determined. The expression of genes was measured by RT-PCR using β2-m as an internal standard.
# (§4) Cell death signaling pathways. To characterize the cell death signaling pathways, the expression of p53, c-fos, c-jun, proapoptotic (BAD, BAX, BCL-G, BCL-W, BCL-XS, BID, BIK, BIM, BNIP 1-3, HARAKIR1, MSL-1S, NIX) and antiapoptotic (BCL-2, AVEN, BAG, BCL-XL, BFL, DAD1, MSL-1) members of BCL-2 family of proteins and genes encoding these proteins were measured by western blot analysis and RT-PCR, respectively using well-established methods known to those of skill in the art.
# (§5) Gene expression. A combination of reverse transcription (RT) and polymerase chain reaction (PCR) was used for the analysis of gene expression as described (Minko, et al. (1999) J. Controlled Rel. 59:133-148). Briefly, total cellular RNA was isolated using an RNeasy kit (QIAGEN,™, Valencia, Calif.) and a […]™ micro-spin homogenizer (QIAGEN). First-strand cDNA was synthesized by Ready-To-Go You-Prime First-Strand Beads (Amersham Biosciences, Piscataway, N.J.) according to the manufacturer's instructions with 2 μg of total cellular RNA (from 1×10^7 cells) and 100 ng of random hexadeoxynucleotide primer (Amersham Biosciences, Piscataway, N.J.). After synthesis, the reaction mixture was diluted 1:3 with water and immediately subjected to PCR, which was carried out using GenAmp PCR System 2400 (Perkin Elmer Instruments, Shelton, Conn.). The pairs of primers used to amplify each type of cDNA and PCR regimes are well-known in the art (Kunath, et al. (2000) supra; Minko, et al. (2003) supra; Minko, et al. (2002) supra; Minko, et al. (1999) supra; Minko, et al. (2000) supra; Minko, et al. (2001) supra). PCR products were separated in 4% NUSIEVE® 3:1 RELIANT® agarose gels (BMA, East Rutherford, N.J.) in 1×TBE buffer (0.089 M Tris/Borate, 0.002 M EDTA, pH 8.3) by submarine electrophoresis. The gels were stained with ethidium bromide and digitally photographed. To calculate the size and amount of PCR products, a Low DNA Mass ladder (GibcoBRL, Carlsbad, Calif.) was used. β2-microglobulin was used as an internal standard and to confirm the efficacy of PCR (Kunath, et al. (2000) supra; Minko, et al. (2001) supra).
# [3] = test system: human ovarian carcinoma cells; assay: Mitochondrial transmembrane potential, JC-1 probe, flow cytometry; type: cell-based; settings: JC-1 red/green fluorescence ratio
# Experimental: (§6) By way of example, the effectiveness of a BH3 peptide ([…] SEQ ID NO:1) to increase cell death by inducing the mitochondrial dysfunction leading to necrosis was measured. BH3 peptide was delivered into human ovarian carcinoma cells by the Antennapedia (Ant) internalization sequence (Arg-Gln-Ile-lys-[…] SEQ ID NO:2). Mitochondrial function was assessed by flow cytometry analysis using the lipophilic cationic fluorescent probe 5,5′,6,6′-tetrachloro-1,1′,3,3′-tetraethylbenzimidazolcarbo-cyanine iodide (JC-1). This probe exists as a monomer, and upon excitation at 490 nm, emits light at 527 nm resulting in green fluorescence. At high mitochondrial transmembrane potential, JC-1 forms multimers, known as J-aggregates, and emits light at 590 nm upon excitation at 490 nm resulting in red fluorescence. Therefore, the red/green fluorescence ratio measured by flow cytometry reflects the number of functioning mitochondria. Ant alone was not toxic up to the highest possible concentration (1 mg/mL). In contrast, the combination of Ant with BH3 peptide led to a significant increase in toxicity of the peptide. […] The effect of the Ant-BH3 peptide on mitochondrial transmembrane potential was also determined.
# [4] = test system: cancer cells not expressing LHRHR; assay: Cytotoxicity in LHRHR-negative cancer cells; type: cell-based
# Experimental: as §1, §2
# [5] = test system: A2780 human ovarian carcinoma cells; assay: RT-PCR expression of caspases, APAF-1 and SMAC; type: cell-based
# Experimental: The effect of the LHRH-BH3 peptide on apoptosis was analyzed by measuring transcriptional and translational levels and activity of human caspases. […] Active caspase 9, in turn, activates a cascade of downstream caspases, as evidenced by increased expression levels, which subsequently leads to induction of apoptosis.
# Cystein aspartate-specific proteases (caspases). Three approaches were used to analyze the role of each of the human caspases in the apoptosis induction. First, the expression of genes encoding human caspases 1-10 and the Apoptotic Protease Activating Factor (APAF-1) and Second Mitochondria-Derived Activator of Caspase (SMAC) were studied by RT-PCR (Minko, et al. (1999) supra; Minko, et al. (2000) supra). […] Therefore, in addition to the measurement of the gene expression, the amount of active caspases and activity of the enzymes was measured. The amount of active caspases was estimated by western blot analysis. The activity of expressed caspases was measured using the Caspase Protease Assay kit (MBL International, Watertown, Mass.) or a colorimetric protease assay kit (PanVera, Madison, Wis.) (Minko, et al. (2001) supra). Cells were separately incubated with the conjugates for 48 hours. The assay colormetric assay is based on the spectrophotometric detection of the chromophore p-nitroanilide (pNA) after cleavage from the substrate, X-pNA. An increase in caspase activity was determined by comparing levels in cells exposed to conjugates to levels in cells of the untreated control incubated with saline.
# as §5
# [6] = test system: genes encoding proapoptotic members of the BCL-2 protein family; assay: RT-PCR expression of genes encoding proapoptotic members of the BCL-2 protein family; type: cell-based, human; settings: 48 hours, IC50 dose of Ant-BH3 peptide; β2-m internal standard
# Experimental: as §3, §4, §5
# [7] = test system: human ovarian carcinoma cells; assay: Cytotoxicity (IC50 dose) of Ant, Ant-BH3 peptide and DOX; type: cell-based; settings: highest possible concentration
# Experimental: as §6, with “mitochondria.” for “mitochondria. Ant alone was not toxic up to the highest possible concentration (1 mg/mL). In contrast, the combination of Ant with BH3 peptide led to a significant increase in toxicity of the peptide.”
# Cytotoxicity. The cytotoxicity of drugs were assessed using a modified MTT (3-(4,5-dimethylthiazol-2-yl)-2,5-diphenyltetrazolium bromide) assay (Kunath, et al. (2000) Eur. J. Pharm. Biopharm 49:11-15; Minko, et al. (1998) J. Controlled Rel. 54:223-233; Minko, et al. (1999) J. Controlled Rel. 59:133-148; Minko, et al. (2002) Cancer Chemother. Pharmacol. 50:143-150). […]
# [8] = test system: A2780 human ovarian carcinoma cells; assay: Expression of BCL-2, BCL-XL, SMAC, APAF-1, caspase 9 and caspase 3 genes after CPT conjugates; type: cell-based; settings: 48-hour incubation
# Experimental: The expression of genes encoding antiapoptotic members of the BCL-2 protein family (BCL-2 and BCL-XL), caspase activators (SMAC and APAF-1), caspase 9 (apoptosis inhibitor) and caspase 3 (apoptosis executor) as well as the activity of the caspases was measured after a 48-hour incubation of A2780 human ovarian carcinoma cells with CPT, CPT-PEG, CPT-PEG-BH3, or CPT-PEG-LHRH conjugates.
# Gene expression. A combination of reverse transcription (RT) and polymerase chain reaction (PCR) was used for the analysis of gene expression as described (Minko, et al. (1999) J. Controlled Rel. 59:133-148). Briefly, total cellular RNA was isolated using an RNeasy kit (QIAGEN,™, Valencia, Calif.) and a […] ™ micro-spin homogenizer (QIAGEN). First-strand cDNA was synthesized by Ready-To-Go You-Prime First-Strand Beads (Amersham Biosciences, Piscataway, N.J.) according to the manufacturer's instructions with 2 μg of total cellular RNA (from 1×10^7 cells) and 100 ng of random hexadeoxynucleotide primer (Amersham Biosciences, Piscataway, N.J.). After synthesis, the reaction mixture was diluted 1:3 with water and immediately subjected to PCR, which was carried out using GenAmp PCR System 2400 (Perkin Elmer Instruments, Shelton, Conn.). […]
# LHRH receptor = target: T1, LHRH receptor (human, UniProt P30968 1-328); assay: cell-based or functional assay
# T1 sequence (looked up): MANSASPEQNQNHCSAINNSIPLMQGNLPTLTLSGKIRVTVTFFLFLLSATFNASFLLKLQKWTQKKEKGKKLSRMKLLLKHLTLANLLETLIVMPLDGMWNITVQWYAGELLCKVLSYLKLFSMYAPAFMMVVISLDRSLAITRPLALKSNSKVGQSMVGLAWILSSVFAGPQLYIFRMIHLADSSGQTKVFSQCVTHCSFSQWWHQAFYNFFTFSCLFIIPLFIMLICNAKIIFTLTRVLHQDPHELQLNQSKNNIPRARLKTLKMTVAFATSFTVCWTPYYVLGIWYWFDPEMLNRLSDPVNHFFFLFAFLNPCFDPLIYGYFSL
# [9] = A2780, 48 hours, IC50 dose of peptide, ratio of band intensity to β2-m internal standard
molecule,measurement,setting,value
"CCNC(=O)[C@@H]1CCCN1C(=O)[C@H](CCCNC(=N)N)NC(=O)[C@H](CC(C)C)NC(=O)[C@@H](CCCCN)NC(=O)[C@H](Cc1ccc(O)cc1)NC(=O)[C@H](CO)NC(=O)[C@H](Cc1c[nH]c2ccccc12)NC(=O)[C@H](Cc1c[nH]cn1)NC(=O)[C@@H]1CCC(=O)N1 [LHRH peptide, LHRH-Lys^6-des-Gly^10-Pro^9-ethylamide, reference compound]",toxicity,[1],did not have any significant toxicity
RQIKIWFQNRRMKWKKMGQVGRQLAIIGDDINRRY [Ant-BH3],"Expression, % of Control: AVEN",[2],78 ± 2 % of Control
same,"Expression, % of Control: BAG",[2],56 ± 5 % of Control
same,"Expression, % of Control: BCL-2",[2],66 ± 7 % of Control
same,"Expression, % of Control: BCL-W",[2],97 ± 8 % of Control
same,"Expression, % of Control: BCL-XL",[2],64 ± 3 % of Control
same,"Expression, % of Control: BFL",[2],70 ± 2 % of Control
same,"Expression, % of Control: DAD-1",[2],99 ± 5 % of Control
same,"Expression, % of Control: MCL-1L",[2],108 ± 8 % of Control
same,toxicity,[1],toxic
same,changes in mitochondrial membrane potential,[3],did not lead to statistically significant changes
same,toxicity,[4],toxic
same,Mean Gene Expression ± SD: APAF-1,[5]; [9],78 ± 3
same,Mean Gene Expression ± SD: Caspase 2,[5]; [9],134 ± 5
same,Mean Gene Expression ± SD: Caspase 3,[5]; [9],60 ± 5
same,Mean Gene Expression ± SD: Caspase 6,[5]; [9],77 ± 5
same,Mean Gene Expression ± SD: Caspase 7,[5]; [9],88 ± 8
same,Mean Gene Expression ± SD: Caspase 8,[5]; [9],70 ± 6
same,Mean Gene Expression ± SD: Caspase 9,[5]; [9],126 ± 11
same,Mean Gene Expression ± SD: Caspase 10,[5]; [9],48 ± 3
same,Mean Gene Expression ± SD: SMAC,[5]; [9],77 ± 2
same,expression of APAF-1 and SMAC,[5]; A2780 cells,up-regulation
same,"Expression, % of Control: BAD",[6],90 ± 8 % of Control
same,"Expression, % of Control: BAX",[6],91 ± 9 % of Control
same,"Expression, % of Control: BCL-G",[6],87 ± 11 % of Control
same,"Expression, % of Control: BCL-XS",[6],168 ± 11 % of Control
same,"Expression, % of Control: BID",[6],99 ± 9 % of Control
same,"Expression, % of Control: BIK",[6],511 ± 42 % of Control
same,"Expression, % of Control: BIM",[6],114 ± 17 % of Control
same,"Expression, % of Control: BNIP-1",[6],93 ± 8 % of Control
same,"Expression, % of Control: BNIP-2",[6],173 ± 14 % of Control
same,"Expression, % of Control: BNIP-3",[6],69 ± 6 % of Control
same,"Expression, % of Control: HRK",[6],88 ± 10 % of Control
same,"Expression, % of Control: MLS-1S",[6],130 ± 11 % of Control
same,"Expression, % of Control: NIX",[6],89 ± 10 % of Control
Arg-Gln-Ile-lys-Ile-Trp-Phe-Gln-Asn-Arg-Arg-Met-Lys-Trp-Lys-Lys (RQIKIWFQNRRMKWKK; Antennapedia internalization peptide),concentration up to which not toxic,[7],> 1 mg/mL
Met-Gly-Gln-Val-Gly-Arg-Gln-Leu-Ala-Ile-Ile-Gly-Asp-Asp-Ile-Asn-Arg-Arg-Tyr (MGQVGRQLAIIGDDINRRY; Synthetic BH3 domain peptide) [BH3 peptide],concentration up to which not toxic,"[1]; A2780, maximal possible concentration limited by solubility",> 1 mg/mL
same,"expression of caspases 1, 4, and 5",[5]; A2780 cells,not expressed
"CC[C@@]1(O)C(=O)OCc2c1cc1n(c2=O)Cc2cc3ccccc3nc2-1 [CPT, camptothecin]",activation of caspase-dependent apoptosis pathway and cellular antiapoptotic defense (gene expression),[8],activated both caspase-dependent pathways of apoptosis and cellular antiapoptotic defense
B1,"concentration of LHRH that decreased cytotoxicity of LHRH-BH3 peptide by 50% (EC50 dose of LHRH peptide), A2780 cells",LHRH receptor,7.3e-05 ng/mL
B2,"cytotoxicity IC50 (modified MTT assay), LHRHR-positive A2780 human ovarian cancer cells",LHRH receptor,3.97 ng/mL
same,"toxicity in MCF-7 cells (LHRHR expression 1.6-fold less) relative to toxicity in A2780 cells, fold less",LHRH receptor,10 fold
same,"toxicity in PC-3 cells (LHRHR expression 3.2-fold less) relative to toxicity in A2780 cells, fold less",LHRH receptor,100 fold
